Results on nine molecules are retold here after patent US5151417A, “3-substituted vinyl cephalosporin derivatives” (Eisai Co., Ltd., priority 1989, dated 1992).

Common to all, as to assay type: cell-based
Experiment [1] has as its system Serratia marcescens IID 620. In words: In vitro antibacterial activity, Serratia marcescens IID 620 (Table 1). The settings on record: IID620. Here is the method: (§1) Typical compounds out of the compounds described in Examples were classified into some groups. On each compound group, in vitro antibacterial activities were tested by a method known per se in the art.

In experiment [2] the test system is Klebsiella pneumoniae IID 875. Kind of experiment: In vitro antibacterial activity, Klebsiella pneumoniae IID 875 (Table 1). The settings on record: IID875. Here is the method: as §1
The subject of experiment [3] is Morganella morganii IID 602. In words: In vitro antibacterial activity, Morganella morganii IID 602 (Table 1). The settings on record: IID602. Here is the method:
as §1

Experiment [4] deals with Escherichia coli MIHJ JC-2. In words: In vitro antibacterial activity, Escherichia coli MIHJ JC-2 (Table 1). Particulars: MIHJJC2. Here is the method:
as §1

The test system of experiment [5] is Staphylococcus aureus 209PJCl. In words: In vitro antibacterial activity, Staphylococcus aureus 209PJCl (Table 1). Here is the method:
as §1

The test system of experiment [6] is Staphylococcus aureus 209-P. In words: In vitro antibacterial activity, Staphylococcus aureus 209-P (Tables 2-6). Particulars: Staphylococcus aureus, 209P. Here is the method:
as §1

In experiment [7] the test system is Serratia marcescens ES-75. Kind of experiment: In vitro antibacterial activity, Serratia marcescens ES-75 (Tables 2-6). Particulars: Serratia marcescens. Here is the method: as §1
For experiment [8], the system named is Klebsiella pneumoniae EK-6. Kind of experiment: In vitro antibacterial activity, Klebsiella pneumoniae EK-6 (Tables 2-6). The settings on record: Klebsiella pneumoniae. Here is the method: as §1
The test system of experiment [9] is Morganella morganii EP-14. Kind of experiment: In vitro antibacterial activity, Morganella morganii EP-14 (Tables 2-6). Particulars: Morganella morganii. Here is the method:
as §1

The test system of experiment [10] is Escherichia coli NIHJ. Kind of experiment: In vitro antibacterial activity, Escherichia coli NIHJ (Tables 2-6). The settings on record: Escherichia coli. Here is the method:
as §1

The mark [11] stands for this setting: Serratia marcescens IID 620, read-out: MIC.
[12] abbreviates: Klebsiella pneumoniae IID 875, read-out: MIC.
The mark [13] stands for this setting: Morganella morganii IID 602, read-out: MIC.
Setting [14] is: Escherichia coli MIHJ JC-2, read-out: MIC.
Setting [15] is: Staphylococcus aureus 209PJCl, read-out: MIC.
[16] abbreviates: Staphylococcus aureus 209-P, read-out: MIC.
The mark [17] stands for this setting: ES75, Serratia marcescens ES-75, read-out: MIC.
[18] abbreviates: EK6, Klebsiella pneumoniae EK-6, read-out: MIC.
Where [19] appears, read: EP14, Morganella morganii EP-14, read-out: MIC.
Setting [20] is: Escherichia coli NIHJ, read-out: MIC.

As a reminder, the MIC is the lowest concentration that inhibits growth of the organism.

SMILES strings stand for the structures. Converted amounts (≈) assume the structure as drawn. Read-outs that look alike come from different tables or passages of the source.

Regarding `NC(=O)OC/C=C\C1=C(C(=O)[O-])N2C(=O)C(NC(=O)/C(=N\O)c3csc(N)n3)[C@H]2SC1.[Na+]` (stereo partly drawn) [Example 1, Sodium 7-[(Z)-2-(2-aminothiazol-4-yl)-2-hydroxyiminoacetamido]-3-[(Z)-3-carbamoyloxy-1-propenyl]-3-cephem-4-carboxylate], the MIC in experiment [1] (Serratia marcescens) was found to be 0.025 mg/L; in experiment [2] (Klebsiella pneumoniae) it was 0.012 mg/L; in experiment [3] (Morganella morganii), 0.012 mg/L; in experiment [4] (Escherichia coli) it was 0.025 mg/L; in experiment [5] (Staphylococcus aureus, 209PJCL) it was 0.1 mg/L.

For `CO/N=C(\C(=O)NC1C(=O)N2C(C(=O)[O-])=C(/C=C\COC(N)=O)CS[C@H]12)c1csc(N)n1.[Na+]` (stereo partly drawn) [Example 7, Sodium 7-[(Z)-2-(2-aminothiazol-4-Yl)-2-methoxyiminoacetamido]-3-[(Z)-3-carbamoyloxy-1-propenyl]-3-cephem-4-carboxylate], the MIC stood at 0.025 mg/L in experiment [1] (Serratia marcescens); 0.025 mg/L in experiment [2] (Klebsiella pneumoniae); 0.025 mg/L in [3] (Morganella morganii); 0.2 mg/L in [4] (Escherichia coli); 0.8 mg/L in experiment [5] (Staphylococcus aureus, 209PJCL).

For `CNC(=O)OC/C=C\C1=C(C(=O)[O-])N2C(=O)C(NC(=O)/C(=N\O)c3csc(N)n3)[C@H]2SC1.[Na+]` (stereo partly drawn) [Example 9, Sodium 7-[(Z)-2-(2-aminothiazol-4-yl)-2-hydroxyiminoacetamido]-3-[(Z)-3-(N-methylcarbamoyloxy)-1-propenyl]-3-cephem-4-carboxylate], the minimal inhibitory concentration (MIC) in experiment [1] (Serratia marcescens) was determined as 0.8 mg/L; in [2] (Klebsiella pneumoniae), 0.012 mg/L; in experiment [3] (Morganella morganii), 0.1 mg/L; in [4] (Escherichia coli), 0.05 mg/L; in [5] (Staphylococcus aureus, 209PJCL), 0.1 mg/L.

Turning to `Nc1nc(/C(=N/O)C(=O)NC2C(=O)N3C(C(=O)O)=C(/C=C/Cn4cnnn4)CSC23)cs1` (stereo not drawn) [Example 11, 7-[2-(2-Aminothiazole)-2-hydroxyiminoacetamido]-3-(3-1H-tetrazolyl-1-propenyl-1-yl)-3-cephem-4-carboxylate], the MIC in experiment [1] (setting [11]) stood at 0.8 mg/L (≈ 1.68 µM); in experiment [2] (setting [12]), 0.05 mg/L (≈ 0.105 µM); in experiment [3] (setting [13]) it was 0.05 mg/L (≈ 0.105 µM); in experiment [4] (setting [14]), 0.1 mg/L (≈ 0.209 µM); in [5] (setting [15]), 0.1 mg/L (≈ 0.209 µM).

For `Nc1nc(/C(=N/O)C(=O)NC2C(=O)N3C(C(=O)O)=C(/C=C/Cn4ncnn4)CSC23)cs1` (stereo not drawn) [Example 12, 7-[2-(2-Aminothiazole)-2-hydroxyiminoacetamido]-3-(3-2H-tetrazolyl-1-propenyl-1-yl)-3-cephem-4-carboxylic Acid], the minimum inhibitory concentration (MIC) in experiment [1] (setting [11]) stood at 0.8 mg/L (≈ 1.68 µM); in experiment [2] (setting [12]), 0.1 mg/L (≈ 0.209 µM); in experiment [3] (setting [13]), 0.05 mg/L (≈ 0.105 µM); in experiment [4] (setting [14]) it was 0.1 mg/L (≈ 0.209 µM); in experiment [5] (setting [15]), 0.1 mg/L (≈ 0.209 µM).

As to `NC(=O)OC/C=C/C1=C(C(=O)[O-])N2C(=O)C(NC(=O)/C(=N\O)c3csc(N)n3)[C@H]2SC1.[Na+]` (stereo partly drawn) [Example 13, Sodium 7-[(Z)-2-(2-aminothiazol-4-yl)-2-hydroxyiminoacetamido]-3-[(E)-3-carbamoyloxy-1-propenyl]-3-cephem-4-carboxylate], the minimum inhibitory concentration (MIC) in experiment [1] (Serratia marcescens) is 0.1 mg/L; in experiment [2] (Klebsiella pneumoniae), 0.025 mg/L; in [3] (Morganella morganii) it was 0.05 mg/L; in [4] (Escherichia coli), 0.1 mg/L; in experiment [5] (Staphylococcus aureus, 209PJCL), 0.1 mg/L.

On to `CO/N=C(\C(=O)N[C@@H]1C(=O)N2C(C(=O)[O-])=C(/C=C/C3CCC(=O)O3)CS[C@H]12)c1csc(N)n1.[Na+]` (stereo partly drawn) [Example 52, Sodium 7β-[(Z)-2-aminothiazol-4-yl-2-methoxyiminoacetamido]-3-[(E)-2-(5-oxotetrahydrofuran 2-yl)vinyl]-3-cephem-4-carboxylate], for which the MIC in [6] was 0.4 mg/L; in experiment [7] (ES75), 0.012 mg/L; in [8] (EK6), 0.025 mg/L; in [9] (EP14), at most 0.006 mg/L; in experiment [10], 0.1 mg/L.

With `CO/N=C(\C(=O)N[C@@H]1C(=O)N2C(C(=O)OCOC(=O)C(C)(C)C)=C(/C=C/C3CCC(=O)O3)CS[C@H]12)c1csc(N)n1` (stereo partly drawn) [Example 53, Pivaloyloxymethyl 7β-[(Z)-2-aminothiazol-4-yl-2-methoxyiminoacetamido]-3-[(E)-2-(5 oxotetrahydrofuran-2-yl)vinyl]-3-cephem-4-carboxylate], the MIC in experiment [6] (setting [16]) amounted to 0.1 mg/L (≈ 0.165 µM); in experiment [7] (setting [17]) it was 0.05 mg/L (≈ 0.0823 µM); in [8] (setting [18]), 0.025 mg/L (≈ 0.0411 µM); in experiment [9] (setting [19]), 0.025 mg/L (≈ 0.0411 µM); in experiment [10] (setting [20]) it was 0.025 mg/L (≈ 0.0411 µM).

Turning to `CC(C)(C)C(=O)OCOC(=O)C1=C(/C=C\C2CC2)CS[C@@H]2[C@H](NC(=O)/C(=N\O)c3csc(N)n3)C(=O)N12` [Example 58, Pivaloyloxymethyl 7-62-[(Z)-2-(2-aminothiazol-4-yl)-2-hydroxyiminoacetamido]-3-[(Z)-cyclopropylvinyl]-3-cephem-4-carboxylate], the MIC in [6] (setting [16]) worked out at 0.1 mg/L (≈ 0.182 µM); in [7] (setting [17]), 0.8 mg/L (≈ 1.46 µM); in experiment [8] (setting [18]), 0.2 mg/L (≈ 0.364 µM); in experiment [9] (setting [19]), 0.1 mg/L (≈ 0.182 µM); in experiment [10] (setting [20]) it was 0.4 mg/L (≈ 0.728 µM).
